{"source": "patent US20250057873A1", "about": "“Intestinal Tumor Suppressor, PGE2 Production Inhibitor, and IL-22BP Production Promoter” (TOKYO UNIVERSITY OF SCIENCE FOUNDATION, priority 2021, published 2025)", "key": {"Dectin-1 [1]": {"target": "T1, Dectin-1 (Mus musculus, UniProt Q6QLQ4)", "T1 construct": "CD11b^+ cells and CD11c^+ cells were purified from colorectal polyps with autoMACS; endogenous in cells; host or cells: primary CD11b+/CD11c+ cells or all polyp-infiltrating cells from colorectal/intestinal polyps of WT (C57BL/6J, AOM-DSS) or Apc^Min/+ mice", "T1 sequence (Q6QLQ4 1-244)": "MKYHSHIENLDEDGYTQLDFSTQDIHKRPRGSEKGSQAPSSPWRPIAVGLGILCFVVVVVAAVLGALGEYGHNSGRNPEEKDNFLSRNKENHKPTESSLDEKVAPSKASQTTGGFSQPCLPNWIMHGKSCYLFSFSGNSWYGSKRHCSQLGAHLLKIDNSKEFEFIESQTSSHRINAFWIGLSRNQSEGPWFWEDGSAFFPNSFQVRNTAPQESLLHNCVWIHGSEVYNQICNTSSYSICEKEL", "test": "Stimulation of Apc^Min/+ polyp-infiltrating leukocytes / CD11b+ cells with Curdlan, with or without laminarin pre-treatment, qPCR", "format": "cell-based", "details": "polyp-infiltrating leukocytes from Apc^Min/+ mice, Curdlan 20 hours, qPCR", "method": "FIG. 5f: All polyp-infiltrating cells of the Apc^Min/+ mice were collected, and were stimulated with Curdlan for 20 hours, and then the expression of the genes involved in the PGE2 synthesis was measured by qPCR. A laminarin treatment was performed for 4 hours before the Curdlan treatment.\nFIG. 5g: Purified CD11b^+ polyp-infiltrating cells of the Apc^Min/+ mice were collected, and were stimulated with Curdlan for 20 hours, and then the expression of the genes involved in the PGE2 synthesis was measured by qPCR. A laminarin treatment was performed for 4 hours before the Curdlan treatment. The data in (FIGS. 5a to 5g) are representative of two independent experiments and expressed as mean±SD. *p<0.05, **p<0.01, and ***p<0.001.\nInfiltrating cells in mouse/human colorectal tumor/non-tumor tissues (2×10^5) or mouse/human colorectal tumor/non-tumor tissue pieces (3 mm×3 mm cut) were cultured with Dectin-1 ligands Curdlan, OXCA, or laminarin, or with PGE2 stimulation for 20 h at 37° C. under 5% CO2 in 96-well flat-bottomed plates (Falcon, Becton Dickinson) in a volume of 0.2 ml RPMI containing 10% FBS and 1% streptomycin plus penicillin. After the culture, cells or tissues were collected and mRNA expression of tumor- or anti-tumor-associated genes was measured by qPCR described in Quantitative reverse transcription PCR section described later. […]"}, "DECTIN-1 [2]": {"target": "T2, DECTIN-1 (Homo sapiens, UniProt Q9BXN2)", "T2 construct": "endogenous in cells; host or cells: tumour-infiltrating cells and small tumour tissue pieces from surgical specimens of human CRC patients", "T2 sequence (Q9BXN2 1-247)": "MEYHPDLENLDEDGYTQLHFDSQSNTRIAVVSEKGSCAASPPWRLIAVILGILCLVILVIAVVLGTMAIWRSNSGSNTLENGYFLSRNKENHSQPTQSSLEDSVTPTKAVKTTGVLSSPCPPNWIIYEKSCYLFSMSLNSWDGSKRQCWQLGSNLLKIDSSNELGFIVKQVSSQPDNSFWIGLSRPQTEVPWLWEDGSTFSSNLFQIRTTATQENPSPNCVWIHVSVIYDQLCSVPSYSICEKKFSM", "test": "Curdlan stimulation of human CRC tissues or cancer-infiltrating leukocytes, qPCR", "format": "cell-based", "details": "Curdlan 20 hours", "method": "FIG. 7g: CRC samples were collected, and tumor-infiltrating cells were stimulated with Curdlan for 20 hours. In the case of the laminarin treatment, the cells were first treated with laminarin for 4 hours, and thereafter, were supplied with Curdlan and cultured. Expression of PGE2 synthesizing enzymes was determined by qPCR. Data are mean±SD of 3 wells.\nFIG. 7h: CRC samples were collected, and tumor-infiltrating cells and normal tissue-infiltrating cells were stimulated with Curdlan for 20 hours. In the case of the laminarin treatment, the cells were first treated with laminarin for 4 hours, and thereafter, were supplied with Curdlan and cultured. Expression of CD33 was determined by qPCR. Data are mean±SD of 3 wells.\nFIG. 13c: Fresh CRC specimens were collected after surgery, and small pieces of tumor tissues were stimulated with Curdlan for 20 hours. In the case of the laminarin treatment, the tissues were first treated with laminarin for 4 hours, and then Curdlan was added to the cultured tissues. The expression of the PGE2 synthase was determined by qPCR. The data are expressed as mean SD of 3 wells. *p<0.05, **p<0.01, and ****p<0.0001. […]"}, "Dectin-1 [3]": {"target": "T1, Dectin-1", "details": "autoimmune-prone; cited from earlier work"}}, "data": [{"substance": "Curdlan", "values": [{"measurement": "expression of Ptges3, Ptgs1 and Ptgs2", "setting": "Dectin-1 [1]", "value": "significantly induced"}, {"measurement": "PGE2 synthase gene expression", "setting": "DECTIN-1 [2]; CRC tissues or cancer-infiltrating leukocytes", "value": "induction"}, {"measurement": "expression of CD33", "setting": "DECTIN-1 [2]; tumor or normal tissue-infiltrating cells", "value": "upregulated"}, {"measurement": "disease induction in SKG mice", "setting": "Dectin-1 [3]", "value": "evokes arthritis, spondyloarthritis and ileitis"}]}]}
